Assay results published in patent US5306721A (priority 1990, dated 1994).
Read-outs that look alike come from different tables or passages of the source.

Assays:
[1] = test system: Vesicular Stomatitis Indiana; test: microbe, parasite or virus in culture; type: cell-based, vesicular stomatitis virus
[2] = test system: Vesicular Stomatitis Indiana; test: microbe, parasite or virus in culture; type: cell-based; details: in Gallus gallus, read-out: Plaque reduction in % of the virus control
Vaccinia Lister [3] = test: microbe, parasite or virus in culture; type: cell-based; details: Orthopoxvirus vaccinia
Vaccinia Lister [4] = test: microbe, parasite or virus in culture; type: cell-based, vaccinia virus
coxsackie A 9 virus = test: Antiviral activity against coxsackie A 9 virus; type: cell-based
adenovirus type 4 = test: Antiviral activity against adenovirus type 4; type: cell-based
[5] = test system: Herpes simplex type 1 Kupka; test: Grading replication test on RH cell line, herpes simplex type 1 Kupka; type: cell-based, herpes simplex virus; details: RH cells
[6] = test system: SE-specific IgM and IgG plaque forming cells (PFC); test: Plaque test (HPT) for SE-specific IgM and IgG plaque forming cells, immunostimulatory action; type: in vivo, mouse (inbred CBA strain); details: 2.0 mg/kg daily over 5 days; control 100%; p<0.001
Procedure: The testing of immunostimulatory effects was also conducted on the mouse (inbred CBA strain) by detection through the plaque test for detecting SE (sheep erythrocyte) -specific immunoglobulin M (IgM) and immunoglobulin G (IgG) PFC (plaque forming cells), and by the rosette test.
2.1 Plaque Test for the Detection of SE-Specific IgM and IgG Plaque Forming Cells (PFC)
To check the immunostimulatory effects, the humoral immune response effect of compounds of Formula I was also investigated in mice of the inbred CBA strain and determined by means of the haemolysis plaque test (HPT). This technique permits the PFC, which produce IgM and IgG antibodies, to be determined quantitatively and separately. The immunization with sheep erythrocytes (SE) was carried out on day 0, the substance was administered orally in a daily dose of 1×10^-5 moles/kg of body weight; on days -1 to +3 relative to the determination of the IgM PFC, or on days +1 to +5 relative to the determination of the IgG PFC.
It becomes clear that a daily treatment extending over 5 days with the compound of Example 1, produces a highly significant increase in the SE-specific IgM and IgG PFC in the CBA mouse.

Vaccinia Lister [7] = test: microbe, parasite or virus in culture; type: cell-based; details: Orthopoxvirus vaccinia, in Gallus gallus, read-out: Plaque reduction in % of the virus control
[8] = test system: SE-specific IgM and IgG plaque forming cells (PFC); test: Immunorestorative efficacy: plaque test in cyclophosphamide (CY) damaged animals; type: in vivo, mouse (CBA inbred); details: for IgM PFC/10^6, CY + compound / IgG PFC/10^6 spleen cells, CY + compound: CY 150 mg/kg, oral 2 mg/kg
Procedure: The detection of immunorestorative effects after injury to the immune system was carried out also by the plaque test for detecting SE-specific IgM, and IgG PFC, and by the rosette test.
The determination of the immunorestorative activity of compounds of Formula I was conducted by first damaging the immune system of the experimental animals (CBA inbred mice) by chemotherapy with cyclophosphamide, carrageenan, iloprost, or by radiation. The test was carried the plaque test for detecting SE-specific IgM and IgG PFC, and the rosette test.
The examination of the immunorestorative effects of compounds of Example 1 was carried out by damaging the immune system of the experimental animals by cyclophosphamide (CY), and subsequent testing by sheep erythrocycle SE-specific plaque forming cells PFC.
The immune system of the animals was damaged by the injection of 150 mg/kg of body weight on day -1 before the immunization for both the test and the control groups. Immunization was carried out by the intraperitoneal injection of 4×10^8 SE in 0.2 ml of phosphate buffered saline (PBS) solution.
Each of the experimental animals of the test group received by oral administration 2 mg of the compound of Example 1 per kg of body weight on the days -2, -1, 0, +1 and +2. The SE-specific IgM and IgG PFC was detected by the plaque test.

Herpes simplex type 1 = test: microbe, parasite or virus in culture; type: cell-based, herpes simplex virus
Influenza A/WSN [9] = test: Grading replication test on chicken embryo cells, influenza; type: cell-based; details: Influenza A virus
Influenza A/WSN [10] = test: Plaque reduction test, influenza; type: cell-based; details: Influenza A virus, primary chicken embryo cells, read-out: Plaque reduction in % of the virus control
[11] = Vesicular stomatitis virus, in Gallus gallus, read-out: Lowering the virus yield
[12] = read-out: Inhibition of virus yield
[13] = read-out: Lowering the virus yield
[14] = Orthopoxvirus vaccinia, in Gallus gallus, read-out: Inhibition of virus yield
[15] = Orthopoxvirus vaccinia, in Gallus gallus, read-out: Lowering the virus yield

O=c1[nH]c2ccccc2c(=O)n1CCS [Example 1, 3-(2-mercapto-ethyl)-quinazoline-2,4(1H,3H)-dione]
Inhibition of virus yield ([1]; 125 μmoles/l, chicken embryo cells, n.s. = not significant): n.s. | inhibition at 250 µM ([1]; Vesicular stomatitis virus, in Gallus gallus, read-out: Inhibition of virus yield): 99.9% | log reduction at 125 µM [1, 11]: 0.5 | log reduction at 250 µM [1, 11]: 3 | inhibition at 62.5 µM [2]: 0% | inhibition at 125 µM [2]: 15% | inhibition at 250 µM [2]: 45% | inhibition at 31.25 µM (Vaccinia Lister [3]; [12]): > 100% | inhibition at 62.5 µM (Vaccinia Lister [3]; [12]): 100% | inhibition at 125 µM (Vaccinia Lister [3]; [12]): > 100% | inhibition at 250 µM (Vaccinia Lister [3]; [12]): > 100% | log reduction at 31.25 µM (Vaccinia Lister [3]; [13]): 3.5 | log reduction at 62.5 µM (Vaccinia Lister [3]; [13]): 4 | log reduction at 125 µM (Vaccinia Lister [3]; [13]): > 4 | log reduction at 250 µM (Vaccinia Lister [3]; [13]): > 4 | inhibition at 31.25 µM (Vaccinia Lister [4]; [14]): 99% | inhibition at 62.5 µM (Vaccinia Lister [4]; [14]): 99.7% | inhibition at 125 µM (Vaccinia Lister [4]; [14]): 100% | inhibition at 250 µM (Vaccinia Lister [4]; [14]): > 100% | log reduction at 31.25 µM (Vaccinia Lister [4]; [15]): 1 | log reduction at 62.5 µM (Vaccinia Lister [4]; [15]): 2.5 | log reduction at 125 µM (Vaccinia Lister [4]; [15]): 4 | log reduction at 250 µM (Vaccinia Lister [4]; [15]): 5.67 | therapeutic index (Vaccinia Lister [4]; ratio of maximum tolerated dose to minimum effective dose, vaccinia virus): 8 | antiviral activity (coxsackie A 9 virus): did not have antiviral activity | antiviral activity (adenovirus type 4): did not have antiviral activity | Inhibition of virus yield ([5]; 62.5 μmoles/l, n.s. = not significant): n.s. | log reduction at 62.5 µM ([5]; Human alphaherpesvirus 1, 62.5 μmoles/l, read-out: Lowering the virus yield): 0.75 | inhibition at 125 µM ([5]; Human alphaherpesvirus 1, 125 μmoles/l, read-out: Inhibition of virus yield): > 100% | log reduction at 125 µM ([5]; Human alphaherpesvirus 1, 125 μmoles/l, read-out: Lowering the virus yield): 5.5 | inhibition at 250 µM ([5]; Human alphaherpesvirus 1, 250 μmoles/l, read-out: Inhibition of virus yield): > 100% | log reduction at 250 µM ([5]; Human alphaherpesvirus 1, 250 μmoles/l, read-out: Lowering the virus yield): 6 | number of IgG PFC relative to control [6]: 497% | number of IgM PFC relative to control [6]: 352% | inhibition at 31.25 µM (Vaccinia Lister [7]): 87% | inhibition at 62.5 µM (Vaccinia Lister [7]): 92% | inhibition at 125 µM (Vaccinia Lister [7]): 96% | inhibition at 250 µM (Vaccinia Lister [7]): 100% | number of IgG PFC in CY-suppressed animals ([8]; 6th and 7th days, p<0.05 and p<0.01): significantly increases the number of IgG PFC | recovery of the immunological reactivity (IgM PFC) ([8]; CY-damaged animals, significant on the 5th day, p<0.05): measurable recovery of the immunological reactivity | IgM PFC/10^6, CY + compound ([8]; day of testing +3, CY only control 37.5 ± 27.1): 31.7 ± 26.6 PFC/10^6 | IgM PFC/10^6, CY + compound ([8]; day of testing +4, CY only control 49.7 ± 32.9): 59.8 ± 26.6 PFC/10^6 | IgM PFC/10^6, CY + compound ([8]; day of testing +5, CY only control 56.8 ± 27.6, p<0.05): 125.2 ± 32.7 PFC/10^6 | IgG PFC/10^6 spleen cells, CY + compound ([8]; day of testing +6, CY only control 26.7 ± 12.1, p<0.05): 88.3 ± 24.8 PFC/10^6 spleen cells | IgM PFC/10^6, CY + compound ([8]; day of testing +6, CY only control 74.7 ± 73.4): 47.8 ± 32.7 PFC/10^6 | IgG PFC/10^6 spleen cells, CY + compound ([8]; day of testing +7, CY only control 46.7 ± 16.3, p<0.01): 128.3 ± 28.6 PFC/10^6 spleen cells | IgG PFC/10^6 spleen cells, CY + compound ([8]; day of testing +8, CY only control 63.3 ± 24.2): 58.3 ± 43.6 PFC/10^6 spleen cells | Inhibition of virus yield (Herpes simplex type 1): n.s. | log reduction at 125 µM (Herpes simplex type 1; Human alphaherpesvirus 1, in Gallus gallus, read-out: Lowering the virus yield): 0.33 | inhibition at 250 µM (Herpes simplex type 1; Human alphaherpesvirus 1, 250 μmoles/l, chicken embryo cells, read-out: Inhibition of virus yield): 99% | log reduction at 250 µM (Herpes simplex type 1; Human alphaherpesvirus 1, 250 μmoles/l, chicken embryo cells, read-out: Lowering the virus yield): 1 | inhibition at 31.25 µM (Influenza A/WSN [9]; 31.25 μmoles/l, read-out: Inhibition of virus yield): 99.5% | log reduction at 31.25 µM (Influenza A/WSN [9]; 31.25 μmoles/l, read-out: Lowering the virus yield): 2.5 | inhibition at 62.5 µM (Influenza A/WSN [9]; 62.5 μmoles/l, read-out: Inhibition of virus yield): > 100% | log reduction at 62.5 µM (Influenza A/WSN [9]; 62.5 μmoles/l, read-out: Lowering the virus yield): 4.25 | inhibition at 125 µM (Influenza A/WSN [9]; 125 μmoles/l, read-out: Inhibition of virus yield): > 100% | log reduction at 125 µM (Influenza A/WSN [9]; 125 μmoles/l, read-out: Lowering the virus yield): 4.67 | inhibition at 250 µM (Influenza A/WSN [9]; 250 μmoles/l, read-out: Inhibition of virus yield): > 100% | log reduction at 250 µM (Influenza A/WSN [9]; 250 μmoles/l, read-out: Lowering the virus yield): 6.23 | inhibition at 31.25 µM (Influenza A/WSN [10]; 31.25 μmoles/l): 85% | inhibition at 62.5 µM (Influenza A/WSN [10]; 62.5 μmoles/l): 92% | inhibition at 125 µM (Influenza A/WSN [10]; 125 μmoles/l): 98% | inhibition at 250 µM (Influenza A/WSN [10]; 250 μmoles/l): 100%
